Reference: PubChem BioAssay (NCI)
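Assay format: 96-well plates, 48-hour exposure. TGI marks complete inhibition of growth.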

How the values were obtained:
Experiment in all cases: NCI tumour cell line growth inhibition, 48 h
[1] = tested on: A498 renal
[2] = tested on: A549 NSCLC
[3] = tested on: CAKI-1 renal
[4] = tested on: CCRF-CEM leukemia
[5] = tested on: COLO 205 colon
[6] = tested on: DLD-1 colon
[7] = tested on: DMS 114 small cell lung
[8] = tested on: DMS 273 small cell lung
[9] = tested on: EKVX NSCLC
[10] = tested on: HCC-2998 colon
[11] = tested on: HCT-116 colon
[12] = tested on: HCT-15 colon
[13] = tested on: HL-60(TB) leukemia
[14] = tested on: HOP-18 NSCLC
[15] = tested on: HOP-62 NSCLC
[16] = tested on: HOP-92 NSCLC
[17] = tested on: HT29 colon
[18] = tested on: IGROV1 ovarian
[19] = tested on: K-562 leukemia
[20] = tested on: KM12 colon
[21] = tested on: KM20L2 colon
[22] = tested on: LOX IMVI melanoma
[23] = tested on: M19-MEL melanoma
[24] = tested on: MALME-3M melanoma
[25] = tested on: MCF7 breast
[26] = tested on: MOLT-4 leukemia
[27] = tested on: NCI-H226 lung
[28] = tested on: NCI-H23 lung
[29] = tested on: NCI-H460 lung
[30] = tested on: NCI-H522 lung
[31] = tested on: NCI/ADR-RES ovarian
[32] = tested on: OVCAR-3 ovarian
[33] = tested on: OVCAR-4 ovarian
[34] = tested on: OVCAR-5 ovarian
[35] = tested on: OVCAR-8 ovarian
[36] = tested on: P388 leukemia
[37] = tested on: P388/ADR leukemia
[38] = tested on: RPMI-8226 leukemia
[39] = tested on: RXF 393 renal
[40] = tested on: SF-268 CNS
[41] = tested on: SF-295 CNS
[42] = tested on: SF-539 CNS
[43] = tested on: SK-MEL-2 melanoma
[44] = tested on: SK-MEL-28 melanoma
[45] = tested on: SK-MEL-5 melanoma
[46] = tested on: SK-OV-3 ovarian
[47] = tested on: SN12C renal
[48] = tested on: SN12K1 renal
[49] = tested on: SNB-19 CNS
[50] = tested on: SNB-75 CNS
[51] = tested on: SW-620 colon
[52] = tested on: U251 CNS
[53] = tested on: UACC-257 melanoma
[54] = tested on: UACC-62 melanoma
[55] = tested on: UO-31 renal
[56] = tested on: XF 498 CNS

Measured: TGI

CN(C)CC(CC1=C(CC(CN(C)C)N(C)C)CCC1)N(C)C (stereo unspecified)
> 100 µM: [1] | [2] | [3] | [4] | [5] | [6] | [7] | [8] | [9] | [10] | [11] | [12] | [13] | [14] | [15] | [16] | [17] | [18] | [19] | [20] | [21] | [22] | [23] | [24] | [25] | [26] | [27] | [28] | [29] | [30] | [31] | [32] | [33] | [34] | [35] | [36] | [37] | [38] | [39] | [40] | [41] | [42] | [43] | [44] | [45] | [46] | [47] | [48] | [49] | [50] | [51] | [52] | [53] | [54] | [55] | [56]
